From publication PMC9607427, “Novel 7-Chloro-(4-thioalkylquinoline) Derivatives: Synthesis and Antiproliferative Activity through Inducing Apoptosis and DNA/RNA Damage” (Pharmaceuticals, 2022)
Where two headings read alike, the source gives them in different places.

Columns and labels:
[1] = Cytotoxic MTS assay, whole panel of tested cell lines; format: cell-based, human; conditions: human; MTS, 72 h of incubation, all tested cell lines; read-out: Cytotoxic activity IC50, tested cell lines (considered inactive)
Experimental: (§1) In vitro cytotoxic activity of final compounds 5–82 was evaluated after 3 days of incubation against eight cell lines derived from human solid tumors including lung (A549 cells) and colon (HCT116 and HCT116p53−/−) carcinomas, as well as leukemia cell lines (CCRF-CEM, CEM-DNR, K562, and K562-TAX) and osteosarcoma (U2OS cells). For comparison, non-malignant BJ and MRC-5 fibroblasts, and BJLD and MCR-5LD fibroblasts doxorubicin-resistant cell lines were used. Concentrations inhibiting the cell growth by 50% (IC50) were determined using a quantitative metabolic staining with 3-(4,5-dimethylthiazol-2yl)-5-(3-carboxymethoxyphenyl)-2-(4-sulfophenyl)-2H-tetrazolium (MTS) and are summarized in (Table 3).
(§2) Cytotoxic activity was determined by MTS assay following 72 h of incubation. IC50 is the lowest concentration that kills 50% of cells. The standard deviation in cytotoxicity assays is typically up to 20% of the average value. […] The tested cell lines: A549 (lung adenocarcinoma), BJ (noncancerous human fibroblasts from foreskin), BJLD (human lung fibroblast doxorubicin-resistant), CCRF-CEM (childhood T cell acute lymphoblastic leukemia), a daunorubicin-resistant subline of CCRF-CEM cells (CEM-DNR bulk), HCT116 (colorectal carcinoma), HCT116p53−/− (HCT116 with deleted p53 gene), K562 (chronic myeloid leukemia), K562-TAX (chronic myeloid leukemia paclitaxel-resistant subline), MRC-5 (noncancerous human lung fibroblasts), MRC-5LD (noncancerous human lung fibroblasts doxorubicin-resistant), and U2OS (osteosarcoma).
(§3) All cell lines were purchased from the American Tissue Culture Collection (ATCC). The A549 cell line is lung adenocarcinoma. MRC-5 and BJ cell lines were used as a non-tumor control and represent human fibroblasts. (MRC-5 LD and BJLD) are doxorubicin-resistant human lung fibroblast cell lines. The CCRF-CEM line is derived from T lymphoblastic leukemia, evincing high chemosensitivity, whereas K562 represent cells from an […] patient sample with bcr-abl translocation. The daunorubicin-resistant subline of CCRF-CEM cells (CEM-DNR bulk) and paclitaxel-resistant subline K562-TAX were selected in our laboratory by the cultivation of maternal cell lines in increasing concentrations of daunorubicin or paclitaxel, respectively. The CEM-DNR bulk cells overexpress MRP-1 and P-glycoprotein protein, whereas K562-TAX cells overexpress P-glycoprotein only. Both proteins belong to the family of ABC transporters and are involved in the primary and/or acquired multidrug-resistance phenomenon. The U2OS cell line is derived from osteosarcoma, HCT116 is a colorectal tumor cell line and its p53 gene knock-down counterpart (HCT116p53−/−, Horizon Discovery Ltd., Cambridge, UK) is a model of human cancers with p53 mutation frequently associated with poor prognosis. The cells were maintained in nunc/corning 80 cm^2 plastic tissue culture flasks and cultured in a cell culture medium according to ATCC or Horizon recommendations (DMEM/RPMI 1640 with 5 g/L glucose, 2 mM glutamine, 100 U/mL penicillin, […], 10% fetal calf serum, and NaHCO3).
(§4) The activity of compounds was determined using a standard 3-(4,5-dimethylthiazol-2-yl)-5-(3-carboxymethoxyphenyl)-2-(4-sulfophenyl)-2H-tetrazolium (MTS) and it was performed at the Institute of Molecular and Translational Medicine by a robotic platform (High-ResBiosolutions). Cell suspensions were prepared and diluted according to the particular cell type and the expected target cell density (25,000–35,000 cells/mL based on cell growth characteristics). Cells were added by automatic pipettor (30 µL) into 384-well microtiter plates. All tested compounds were dissolved in 100% DMSO and four-fold dilutions of the intended test concentration were added in 0.15 µL aliquots at time zero to the microtiter plate wells by the echo acoustic non-contact liquid handler Echo550 (Labcyte). […]

[2] = tested on: eight human cancer and 4 non-tumor cell lines; assay: Cytotoxic MTS assay, whole panel of tested cell lines; format: cell-based; conditions: for Selectivity for leukemic and colorectal cancer cells compared to MRC-5: leukemic and colorectal (with and without p53 deletion) cancer cells vs MRC-5; for Selectivity for cancer cells compared against BJ and MRC-5 cells: colon, leukemia, lung and osteosarcoma cancer cell lines vs BJ and MRC-5
Experimental: as §1, §2, §3, §4

[3] = tested on: A549 (lung adenocarcinoma); assay: Cytotoxic MTS assay, A549; format: cell-based, human
Experimental: as §1, §2, §3, §4

[4] = tested on: BJ (noncancerous human fibroblasts from foreskin); assay: Cytotoxic MTS assay, BJ; format: cell-based
Experimental: as §1, §2, §3, §4

[5] = tested on: BJLD (human lung fibroblast doxorubicin-resistant); assay: Cytotoxic MTS assay, BJLD; format: cell-based
Experimental: as §1, §2, §3, §4

[6] = tested on: CCRF-CEM (childhood T cell acute lymphoblastic leukemia); assay: Cytotoxic MTS assay, CCRF-CEM; format: cell-based, human
Experimental: as §1, §2, §3, §4

[7] = tested on: CEM-DNR bulk (daunorubicin-resistant subline of CCRF-CEM cells); assay: Cytotoxic MTS assay, CEM-DNR; format: cell-based, human
Experimental: as §1, §2, §3, §4

[8] = tested on: HCT116 (colorectal carcinoma); assay: Cytotoxic MTS assay, HCT116; format: cell-based, human
Experimental: as §1, §2, §3, §4

[9] = tested on: HCT116p53−/− (HCT116 with deleted p53 gene); assay: Cytotoxic MTS assay, HCT116p53−/−; format: cell-based, human
Experimental: as §1, §2, §3, §4

[10] = tested on: K562 (chronic myeloid leukemia); assay: Cytotoxic MTS assay, K562; format: cell-based, human
Experimental: as §1, §2, §3, §4

[11] = tested on: K562-TAX (chronic myeloid leukemia paclitaxel-resistant subline); assay: Cytotoxic MTS assay, K562-TAX; format: cell-based, human
Experimental: as §1, §2, §3, §4

[12] = tested on: MRC-5 (noncancerous human lung fibroblasts); assay: Cytotoxic MTS assay, MRC-5; format: cell-based
Experimental: as §1, §2, §3, §4

[13] = tested on: MRC-5LD (noncancerous human lung fibroblasts doxorubicin-resistant); assay: Cytotoxic MTS assay, MRC-5LD; format: cell-based
Experimental: as §1, §2, §3, §4

U2OS (osteosarcoma) = assay: Cytotoxic MTS assay, U2OS; format: cell-based, human
Experimental: as §1, §2, §3, §4

Cytotoxic MTS assay, BJ = format: cell-based, human; conditions: human, BJ cells (noncancerous foreskin fibroblasts); MTS, 72 h of incubation
Experimental: as §1, §2, §3, §4

[14] = Cytotoxic MTS assay, BJLD; format: cell-based, human; conditions: human, BJLD cells (fibroblasts, doxorubicin-resistant); MTS, 72 h of incubation
Experimental: as §1, §2, §3, §4

[15] = Cytotoxic MTS assay, MRC-5; format: cell-based, human; conditions: human, MRC-5 cells (noncancerous lung fibroblasts); MTS, 72 h of incubation
Experimental: as §1, §2, §3, §4

[16] = Cytotoxic MTS assay, MRC-5LD; format: cell-based, human; conditions: human; MTS, 72 h of incubation; read-out: Cytotoxic activity IC50, MRC5-LD
Experimental: as §1, §2, §3, §4

| SMILES | IC50 at 72 h [1] [µM] | IC50 [3] [µM] | IC50 [4] [µM] | IC50 [5] [µM] | IC50 [6] [nM] | IC50 [7] [µM] | IC50 [8] [µM] | IC50 [10] [µM] | IC50 [11] [µM] | IC50 [12] [µM] | IC50 [13] [µM] | IC50 (U2OS (osteosarcoma)) [µM] | further results |
| --- | --- | --- | --- | --- | --- | --- | --- | --- | --- | --- | --- | --- | --- |
| COc1cc(OC)c(C(=O)OCCC[S+]([O-])c2ccnc3cc(Cl)ccc23)cc1OC (stereo not drawn) [Compound 56, 3-[(7-Chloroquinolin-4-yl)sulfinyl]propyl-2,4,5-trimethoxybenzoate] | > 50 |  |  |  |  |  |  |  |  |  |  |  |  |
| CC(C)(C)c1ccc(C(=O)OCC[S+]([O-])c2ccnc3cc(Cl)ccc23)cc1 (stereo not drawn) [Compound 52, 2-[(7-Chloroquinolin-4-yl)sulfinyl]ethyl-4-tert-butylbenzoate] | > 50 |  |  |  |  |  |  |  |  |  |  |  | melting point: 106 °C |
| Cc1ccc(C)c(C(=O)OCCS(=O)(=O)c2cc[n+]([O-])c3cc(Cl)ccc23)c1 [Compound 71, 2-[(N-Oxide 7-chloroquinolin-4-yl)sulfonyl]ethyl-,5-dimethylbenzoate] |  |  |  |  |  |  |  |  |  |  |  |  | IC50 [2]: > 50 µM |
| COc1ccc(C(=O)OCCCS(=O)(=O)c2cc[n+]([O-])c3cc(Cl)ccc23)cc1 [Compound 73, 3-[(N-Oxide 7-chloroquinolin-4-yl)sulfonyl]propyl-4-methoxybenzoate] |  | 5.44 | 12.4 | 10.7 | 2180 | 4.7 | 1.99 | 2.2 | 4.62 | 21.9 | 19 | 5.75 | IC50 [9]: 2.24 µM; Selectivity for leukemic and colorectal cancer cells compared to MRC-5 [2]: good selectivity |
| COc1ccc(C(=O)OCCCS(=O)(=O)c2cc[n+]([O-])c3cc(Cl)ccc23)cc1[N+](=O)[O-] [Compound 79, 3-[(N-Oxide 7-chloroquinolin-4-yl)sulfonyl]propyl-4-methoxy-3-nitrobenzoate] |  | 5.79 | 19 | 12 | 1050 | 4.49 | 3.81 | 6.09 | 3.73 | 20.6 | 13.8 | 4.95 | Cancer cell selectivity for A549 cells compared to BJ and MRC-5 cell lines ([3]; A549 vs BJ and MRC-5): moderate cancer cell selectivity; IC50 [9]: 4.98 µM; Selectivity for cancer cells compared against BJ and MRC-5 cells [2]: good selectivity |
| Cc1cc(C)cc(C(=O)OCCCS(=O)(=O)c2cc[n+]([O-])c3cc(Cl)ccc23)c1 [Compound 81, 3-[(N-Oxide 7-chloroquinolin-4-yl)sulfonyl]propyl-3,5-dimethylbenzoate] |  | 5.32 | 32.5 | 25.4 | 1200 | 6.63 | 3.46 | 3.78 | 6.26 | 46.7 | 21.9 | 5.67 | IC50 [9]: 4.76 µM; Selectivity for cancer cells compared against BJ and MRC-5 cells [2]: most pronounced selectivity |
| COc1cccc(C(=O)OCCCS(=O)(=O)c2cc[n+]([O-])c3cc(Cl)ccc23)c1OC [Compound 74, 3-[(N-Oxide 7-chloroquinolin-4-yl)sulfonyl]propyl-2,3-dimethoxybenzoate] |  | 5.35 | 14.9 | 10.5 | 1410 | 5.58 | 3.23 | 2.71 | 4.91 | 20.4 | 16.2 | 5.4 | Selectivity for leukemic and colorectal cancer cells compared to MRC-5 [2]: good selectivity |
| COc1ccccc1C(=O)OCCC[S+]([O-])c1ccnc2cc(Cl)ccc12 (stereo not drawn) [Compound 58, 3-[(7-Chloroquinolin-4-yl)sulfinyl]propyl-2-methoxybenzoate] | > 50 |  |  |  |  |  |  |  |  |  |  |  |  |
| COc1ccc(C(=O)OCCC[S+]([O-])c2ccnc3cc(Cl)ccc23)cc1 (stereo not drawn) [Compound 53, 3-[(7-Chloroquinolin-4-yl)sulfinyl]propyl-4-methoxybenzoate] |  |  |  |  |  |  |  |  |  |  |  |  | IC50 ([3]; Homo sapiens, A549, MTS, 72 h of incubation, read-out: Cytotoxic activity IC50, A549): 23.6 µM; IC50 at 72 h (Cytotoxic MTS assay, BJ): 30 µM; IC50 at 72 h [14]: 28.2 µM; IC50 ([6]; Homo sapiens, CCRF-CEM, MTS, 72 h of incubation, read-out: Cytotoxic activity IC50, CCRF-CEM): 1310 nM; IC50 ([7]; Homo sapiens, CEM-DNR, MTS, 72 h of incubation, read-out: Cytotoxic activity IC50, CEM-DNR): 8.71 µM; IC50 ([8]; Homo sapiens, HCT-116, MTS, 72 h of incubation, read-out: Cytotoxic activity IC50, HCT116): 12.5 µM; IC50 ([9]; Homo sapiens, HCT-116, MTS, 72 h of incubation, read-out: Cytotoxic activity IC50, HCT116-p53): 8.51 µM; IC50 ([10]; Homo sapiens, K562, MTS, 72 h of incubation, read-out: Cytotoxic activity IC50, K562): 13.9 µM; IC50 ([11]; Homo sapiens, K562-Tax, MTS, 72 h of incubation, read-out: Cytotoxic activity IC50, K562-TAX): 6.98 µM; IC50 at 72 h [15]: 27.9 µM; IC50 at 72 h [16]: 22.4 µM; IC50 (U2OS (osteosarcoma); Homo sapiens, U2OS, MTS, 72 h of incubation, read-out: Cytotoxic activity IC50, U2OS): 12.8 µM |
| O=C(OCC[S+]([O-])c1ccnc2cc(Cl)ccc12)c1ccc(C(F)(F)F)cc1 (stereo not drawn) [Compound 51, 2-[(7-Chloroquinolin-4-yl)sulfinyl]ethyl-4-(trifluoromethyl)benzoate] | > 50 |  |  |  |  |  |  |  |  |  |  |  | melting point: 148 to 150 °C |
| COc1cc(OC)cc(C(=O)OCCC[S+]([O-])c2ccnc3cc(Cl)ccc23)c1 (stereo not drawn) [Compound 55, 3-[(7-Chloroquinolin-4-yl)sulfinyl]propyl-,5-dimethoxybenzoate] |  |  |  |  |  |  |  |  |  |  |  |  | IC50 [2]: > 50 µM |
